Experimental findings from patent US20110046223A1, “TREATMENT OF NEUROFIBROMATOSIS” (RAMOT AT TEL-AVIV UNIVERSITY LTD., priority 2006, published 2011) are described below.

One assay deals with p120 RasGAP. Kind of assay: p120 RasGAP amounts, immunoblot. Type of assay: cell-based, human. The settings on record: 75 μM FTS, 48 hours, NF-1 and non-NF-1 cells. The protocol:
Unless otherwise indicated, cells were lysed 48 hours after being treated with lysis buffer, as described in Haklai, et al., supra. […] Protein bands were visualized by ECL and quantified by densitometry with Image Master VDS-CL (Amersham) using TINA 2.0 software (Ray Tests). To obtain reliable comparisons between replicated experiments for statistical analysis, a standardization procedure was used, in which the density of each given protein band as recorded with its specific Ab, was normalized. […] The standard average density was defined as 1.0, and each of the individually determined bands was related to this value. […] Actin cytoskeletal elements were labeled with rhodamine-phalloidin, and digital fluorescence images were collected on a Zeiss LSM 510 confocal microscope fitted with fluorescein and rhodamine filters, as described in Gana-Weisz, M., et al., supra. […]

Another assay has as its system phospho-ERK. Kind of assay: steady-state phospho-ERK, Western immunoblotting. The format is cell-based, human. Here is the method:
(§1) Unless otherwise indicated, cells were lysed 48 hours after being treated with lysis buffer, as described in Haklai, et al., supra. […] Protein bands were visualized by ECL and quantified by densitometry with Image Master VDS-CL (Amersham) using TINA 2.0 software (Ray Tests). To obtain reliable comparisons between replicated experiments for statistical analysis, a standardization procedure was used, in which the density of each given protein band as recorded with its specific Ab, was normalized. […] The standard average density was defined as 1.0, and each of the individually determined bands was related to this value. […] Actin cytoskeletal elements were labeled with rhodamine-phalloidin, and digital fluorescence images were collected on a Zeiss LSM 510 confocal microscope fitted with fluorescein and rhodamine filters, as described in Gana-Weisz, M., et al., supra.
(§2) Next, to determine whether down-regulation of active Ras by FTS was accompanied by inhibition of Ras signaling, the effect of FTS on steady-state levels of phospho-ERK, phospho-Akt, and RalA-GTP as read-outs of the three prominent Ras pathways, Ras/Raf/MEK/ERK, Ras/PI3K/Akt, and Ras/RalGEF/RalA, respectively, was examined. […]

The subject of assay [1] is total ERK, total Akt, or total RalA. The assay is described as follows: total ERK, total Akt, total RalA, Western immunoblotting. Type of assay: cell-based, human. The settings on record: NF-1 cell lines. Here is the method:
as §1, §2

The next assay relates to Ras, ERK, or Akt. The assay is described as follows: total Ras, ERK, Akt in serum-stimulation experiment. The format is cell-based, human. Particulars: STS26T cells, serum-stimulation conditions. Here is the method:
as §1
First, the time courses of serum-stimulated GTP loading of Ras and serum-stimulated activation of signals downstream of Ras were determined. […]

The subject of the next assay is ST88-14 cells. The assay is described as follows: ST88-14 tumor growth in nude mice. The format is in vivo, nude CD1-Nu male mice. Particulars: six weeks. Here is the method:
ST88-14 cells (5×10^6) in Matrigel were implanted subcutaneously (s.c.) just above the right femoral joint of nude CD1-Nu male mice (6 weeks old). Two weeks later palpable tumors were observed and the mice were separated randomly into vehicle-treated control and FTS-treated groups. Two types of treatment protocols were used. (1) The first protocol was intraperitoneal (i.p.) administration (0.1 mL) of vehicle, 1 mg/kg, 5 mg/kg or 10 mg/kg FTS (n=6 per group). The FTS solution was prepared in saline containing phosphate buffer as described in Haklai, et al., supra. (2) The second protocol was oral administration of FTS. Mice received vehicle or 20, 40, 60, or 80 mg/kg FTS (n=10 per group). The FTS mixture for oral administration was prepared in PBS/0.5% carboxymethyl cellulose. Mice were sacrificed 6 weeks after the start of the treatment, and tumors were removed and weighed. Student's t-test was used for data analysis.
[Ozerdem, U., Angiogenesis 7:307-11 (2004)]. Thus, to determine whether FTS inhibited tumor growth in the nude mouse model, two types of treatments were preformed. The first was i.p. administration of 1, 5, or 10 mg/kg FTS, as earlier described. [Weisz, B., et al., supra.]. The second was oral administration, which required higher FTS doses of 20, 40, 60, and 80 mg/kg. Six weeks after the treatment the mice were sacrificed and tumors were removed and weighed.

The structures appear in SMILES notation.

`CC(C)=CCC/C(C)=C/CC/C(C)=C/CSc1ccccc1C(=O)O` [FTS, S-farnesylthiosalicylic acid]: the “amounts of p120 RasGAP” value in the assay with p120 RasGAP is “no effect”. Moreover, the “steady-state phospho-ERK” value in the assay on phospho-ERK (all NF-1 cell lines) is recorded as “significant reduction”. In the assay on phospho-ERK (non-NF-1 STS26T cells, steady state), the “increase in phospho-ERK” value is reported as 10%-20%. Also, in assay [1], the “amounts of total ERK, total Akt, or total RalA” value is given as “did not affect”. For the same molecule, the “total amounts of Ras, ERK, or Akt” value in the assay on Ras, ERK, or Akt was “no effect”. Besides, the “inhibition of tumor growth (tumor weight)” value in the assay on ST88-14 cells (i.p., 10 mg/kg FTS, P<0.05) is given as 49%; in the assay on ST88-14 cells (oral, 80 mg/kg FTS, P<0.01), 58%. Also, the “tumor growth, dose dependence” value with ST88-14 cells (i.p., 1, 5, or 10 mg/kg FTS) is “dose-dependent inhibition of tumor growth”; in the assay on ST88-14 cells (oral, 20, 40, 60, and 80 mg/kg FTS) it was “dose-dependent inhibition of tumor growth”.
